# Reference: PMC6295333 (Biochemistry, 2018)
# Biological target: Nicotine oxidoreductase (NicA2) (Pseudomonas putida, UniProt F8G0P2)
# Test: X-ray crystal structure at […] Å
# Assay type: binding
# Nicotine oxidoreductase (NicA2), sequence (F8G0P2 whole entry): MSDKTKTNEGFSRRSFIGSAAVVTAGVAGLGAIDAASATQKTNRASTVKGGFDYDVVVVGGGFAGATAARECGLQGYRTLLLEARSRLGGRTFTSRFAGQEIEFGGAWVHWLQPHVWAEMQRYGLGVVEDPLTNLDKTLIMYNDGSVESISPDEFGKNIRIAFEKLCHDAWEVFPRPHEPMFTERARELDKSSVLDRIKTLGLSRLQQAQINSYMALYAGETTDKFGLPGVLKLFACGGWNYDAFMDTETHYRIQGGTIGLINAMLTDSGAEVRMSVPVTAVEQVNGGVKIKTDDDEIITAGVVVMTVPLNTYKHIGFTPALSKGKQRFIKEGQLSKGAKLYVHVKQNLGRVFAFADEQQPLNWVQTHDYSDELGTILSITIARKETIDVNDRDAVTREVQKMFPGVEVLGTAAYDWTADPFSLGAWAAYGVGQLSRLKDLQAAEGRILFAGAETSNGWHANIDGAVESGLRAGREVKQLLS
smiles,measurement,value
Cc1cc2nc3c(=O)[nH]c(=O)nc-3n(C[C@H](O)[C@H](O)[C@H](O)COP(=O)(O)OP(=O)(O)OC[C@H]3O[C@@H](n4cnc5c(N)ncnc54)[C@H](O)[C@@H]3O)c2cc1C [FAD],X-ray crystal structure at 2.65 Å,The general positioning of FAD is clearly defined in the electron density maps
